# Patent US20130039928A1, “COMPOSITIONS AND METHODS FOR REVERSING CORTICOSTEROID RESISTANCE OR TREATING RESPIRATORY INFECTIONS” (priority 2010, published 2013)
# Where two headings read alike, the source gives them in different places. Peptide text beside a SMILES is read from it. * marks the point of attachment. Cbz = O=C(OCc1ccccc1)*
# Assays:
# HDAC2 [1] = type: cell-based, human
# Protocol: (§1) For inducing corticosteroid resistance, PMs were exposed to cigarette smoke condensate (CSC, 100 μg/ml; Murty Pharmaceuticals, Lexington, Ky.) for 16 h. Exposure to S-nitrosoglutathione (GSNO, 10 μM) was limited to 4 h. […] For assessing corticosteroid responsiveness, macrophages were incubated with dexamethasone (1 μM, Sigma) for 1 h followed by LPS (100 ng/ml, Sigma) for additional 4 h.
# (§2) HDAC activity was measured using a fluorescent derivative of ε-acetyl-lysine from Enzo life sciences (Farmingdale, N.Y.) according to the manufacturer's recommendations. HDAC2 was immunoprecipitated for analysis of enzymatic activity.
# (§3) Macrophage cell or lung tissue extracts were prepared by using 100 μL of immunoprecipitation buffer (50 mM Tris-HCl, pH 8.0, 150 mM NaCl, 1.0% Triton X-100, 0.5% NP-40, 0.1% SDS, 0.5% deoxycholate, and complete protease inhibitor cocktail) from Roche (Morristown, N.J.). The lysis mixture was incubated on ice for 15 minutes and microcentrifuged for 10 minutes at 4° C. Extracts were precleared with 20 μL protein A/G sepharose beads (a 50:50 mix) from Thermo scientific (Rockford, Ill.) and 2 μg of normal IgG. After microcentrifugation, 20 μL of protein A/G sepharose conjugated with 5 μg of antibody was used to precipitate HDAC2 (Santa Cruz Biotechnology, Santa Cruz, Calif.) overnight at 4° C. with rotation. The immune complexes were pelleted with gentle centrifugation, washed twice with 1 mL of immunoprecipitation buffer, and divided equally for the final wash for the activity assay and immunoblotting. For the HDAC assay, immunoprecipitates were resuspended in the activity assay buffer (50 mM TrisHCl, pH 8.0; 10% glycerol; 1 mM dithiothreitol; 0.1 mM EDTA, complete protease inhibitor cocktail). For HDAC2-specific western blotting, immune complexes were washed three times with the immunoprecipitation buffer and finally resuspended in Laemmli buffer for the SDS-PAGE.
# HDAC2 [2] = assay: Posttranslational modification of HDAC2 in alveolar macrophages (immunoblot, DAN, biotin-switch); type: cell-based, human; conditions: for levels of SNO-HDAC2: GSNO-exposed alveolar macrophages
# Protocol: S-nitrosylation of proteins was analyzed by anti-SNO antibody, biotin switch assay, and or 2,3-diaminonapthalene (DAN) assay. […] Detail methodology is described in supplementary data.
# as §3
# For HDAC2-specific nitrosylation detection, cells were lysed in buffer (50 mM Tris-HCl, pH 8.0, 150 mM NaCl, 1% Nonidet P-40, 0.5% deoxycholic acid, 0.1% SDS). […] The pellets were resuspended in 500 μL of PBS.
# This assay was performed in the dark.
# The Image J program was used for densitometry analyses.
# NO = NO levels and iNOS expression in alveolar macrophages; type: cell-based, human; conditions: COPD alveolar macrophages, vs vehicle
# Protocol: as §1, §2
# (§4) Total RNA was extracted from the cells by lysis and specific binding to a silica membrance (Qiagen RNeasy kit, Qiagen, Valencia, Calif.), and qRT-PCR was performed by using primers and probe sets for human IL-8, NQO1, GCLM, and iNOS (Assay-on-Demand, Applied Biosystems, Foster City, Calif.). A real-time fluorescent PCR system (ABI 7000 Taqman system, Applied Biosystems) was used to perform these assays. β-actin was used as the normalization control.
# IL-8 = assay: Corticosteroid responsiveness: basal and LPS-induced IL-8 secretion by alveolar macrophages; type: cell-based, human
# Protocol: as §1
# For human IL-8 and mouse IL-6 and MCP-1 proteins, Quantikine ELISA kits from R&D systems (Minneapolis, Minn.) were used according to the manufacturer's instructions.
# glutathione = assay: Intracellular glutathione levels in COPD macrophages; type: cell-based, human; conditions: COPD alveolar macrophages
# Pseudomonas aeruginosa = assay: Clearance of bacteria in vitro by alveolar macrophages (PA); type: cell-based; conditions: COPD alveolar macrophages
# Protocol: Human alveolar macrophages were purified from individual BAL samples by centrifugation and seeded onto 6-well tissue culture plates. After incubation for 2 h, non-adherent cells were removed and the adherent cells were incubated with R, S-sulforaphane (5 μM; LKT Laboratories, Inc., St. Paul, Minn.) and or DMSO in RPMI 1640 culture medium with 10% FBS and 1% penicillin-streptomycin (Invitrogen, Carlsbad, Calif.). After 16-20 h, adherent cells were scraped, suspended in RPMI 1640 culture media and plated onto 96-well tissue culture plates for bacterial phagocytosis and clearance assays. […] For MARCO antibody-depletion, alveolar macrophages were incubated with human anti-MARCO antibody (1 μg/ml; (Hycult, Uden, The Netherlands) for 4 hours prior to bacterial challenge.
# Sputum isolates of nontypeable H. influenzae and P. aeruginosa obtained from patients with COPD at the Department of Veterans Affairs, Western New York Healthcare System were used (S. Sethi, N. Evans, B. J. Grant, T. F. Murphy, N Engl J Med 347, 465 (Aug. 15, 2002); C. S. Berenson, M. A. Garlipp, L. J. Grove, J. Maloney, S. Sethi, J Infect Dis 194, 1375 (Nov. 15, 2006); T. F. Murphy et al., Am J Respir Crit Care Med 177, 853 (Apr. 15, 2008); T. F. Murphy, A. L. Brauer, A. T. Schiffmacher, S. Sethi, Am J Respir Crit Care Med 170, 266 (Aug. 1, 2004)). For bacterial growth, H. influenzae was cultured on chocolate agar or grown in brain heart infusion broth supplemented with 20 μg/mlNAD and 10 μg/ml hemin at 35° C. in 5% CO2. P. aeruginosa was cultured on LB agar plates or in LB broth at 37° C. For FITC-labeling of bacteria, heat inactivated PA and NTHI (10^9 CFU/ml) were resuspended in 1 ml of labeling buffer (0.1 M NaHCO3, pH 9.2) and incubated with fluorescein isothiocyanate (FITC) (Sigma) under constant stiffing in the dark at room temperature for 1 h. Finally, bacteria were washed three times with PBS and dialyzed overnight against PBS. FITC-labeled bacteria were resuspended with PBS at a concentration of 10^9/ml.
# After treatment, macrophages (10^5 cells) were incubated with bacteria (PA or NTHI) for 4 h. Subsequently, 100 μL of cell free culture medium was aseptically plated and cultured on tryptose blood and or chocolate agar plates at 37° C. The number of bacterial colonies was counted after 24 h.
# HDAC2 [3] = target: T1, HDAC2 (Homo sapiens, UniProt Q92769); assay: Cell-free denitrosylation and activity of HDAC2 (cell lysates, IP-HDAC2); type: biochemical
# T1 construct: HDAC2 was immunoprecipitated for analysis of enzymatic activity; endogenous in cells; host or cells: alveolar macrophages from patients with COPD; HDAC2 immunoprecipitated with the Santa Cruz antibody
# T1 sequence (Q92769 whole entry): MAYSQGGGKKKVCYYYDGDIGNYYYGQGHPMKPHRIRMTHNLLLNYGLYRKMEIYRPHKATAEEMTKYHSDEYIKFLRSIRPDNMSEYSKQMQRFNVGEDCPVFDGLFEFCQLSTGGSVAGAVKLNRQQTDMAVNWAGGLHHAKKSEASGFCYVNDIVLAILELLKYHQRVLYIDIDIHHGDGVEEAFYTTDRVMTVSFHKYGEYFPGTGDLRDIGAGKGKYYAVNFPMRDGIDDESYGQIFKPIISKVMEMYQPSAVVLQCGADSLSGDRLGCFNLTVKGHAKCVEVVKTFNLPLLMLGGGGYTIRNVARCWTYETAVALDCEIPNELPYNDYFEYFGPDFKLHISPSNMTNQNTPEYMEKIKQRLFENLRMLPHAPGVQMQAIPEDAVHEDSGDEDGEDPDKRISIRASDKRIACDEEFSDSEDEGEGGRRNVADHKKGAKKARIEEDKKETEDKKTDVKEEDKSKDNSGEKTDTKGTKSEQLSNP
# Protocol: as §2, §3
# S-nitrosylated proteins were detected by using the nitrate/nitrite fluorometric assay kit from Cayman chemicals (Ann Arbor, Mich.) according to the manufacturer's instructions. For HDAC2-specific nitrosylation detection, cells were lysed in buffer (50 mM Tris-HCl, pH 8.0, 150 mM NaCl, 1% Nonidet P-40, 0.5% deoxycholic acid, 0.1% SDS). These lysates were then subjected to immunoprecipitation by using an anti-HDAC2 antibody as described above. The immunoprecipitates were washed twice with lysis buffer and twice with PBS. The pellets were resuspended in 500 μL of PBS. After the addition of 100 μM HgCl2 and 100 μM DAN, the samples were incubated in the dark at 25° C. for 30 minutes, and 1 M NaOH was added. The generated fluorescent triazole from the reaction of the DAN with the NO released from the HDAC2 protein was measured by using an excitation wavelength of 375 nm and an emission wavelength of 450 nm. As a negative control, the antibody alone in lysis buffer was immunoprecipitated. The resulting background fluorescence intensity was subtracted for each experiment.
# [4] = target: recombinant HDAC2 (rHDAC2) (Homo sapiens, UniProt Q92769); assay: Cell-free enzymatic activity of recombinant HDAC2; type: biochemical
# Sequence of recombinant HDAC2 (rHDAC2) (Q92769 whole entry, species assumed): as the sequence (Q92769 whole entry) above
# Protocol: as §2
# IL-8 promoter = assay: ChIP of IL-8 promoter (histone acetylation, HDAC2 binding) in alveolar macrophages; type: cell-based, human
# Protocol: as §1
# Chromatin immunoprecipitation was performed as described previously (Hogg, J. C. & Timens, W., Annu Rev Pathol (2008)). Briefly, cells were fixed in ˜1% formaldehyde in cell growth media for 10 minutes followed by glycine fixation. Cells were then sonicated in ChIP-lysis buffer containing a protease inhibitor cocktail after incubation on ice for 30 minutes. […] sonication, the samples were spun at maximum speed for 12 minutes in a cold microcentrifuge. The supernatants were then addressed as input samples. A part of the input sample was precleared by using a 50% slurry of protein A/G beads prepared in immunoprecipitation (IP) buffer for 2 hours in the cold, following which the beads were centrifuged out and the supernatant was used for IP. Then the precleared samples were incubated with 2 μg of panacetylated histone H4 antibody (ChIP assay kit; Upstate Biotechnology) or anti-HDAC2 antibody from Santa Cruz Biotechnology. As a control, anti-rabbit IgG antibody was added for 1 hour in the cold. The protein A/G bead slurry was added to each reaction and was rotated overnight. The next day, the beads were washed extensively, and the DNA was reverse crosslinked, eluted in elution buffer, and stored at −80° C. until used for sequencing or PCR validation assays. […] This immunoprecipitated DNA was used for PCR amplification by using the specific gene (IL-8 for humans and MCP-1 for mice) promoter PCR assays. PCR primers were used for the IL-8 promoter (forward: 5′-[…]-3′ and reverse: 5′-[…]-3′) and the MCP-1 promoter (forward: 5′-[…]-3′ and reverse: 5′-[…]-3′).
# HDAC2 [5] = type: cell-based, human; conditions: COPD alveolar macrophages
# Protocol: as §1
# All immunoblots were performed by using protocols as described previously (Barnes, P. J., N Engl J Med 343, 269-280 (2000)). Rabbit anti-HDAC2 antibody from Santa Cruz Biotechnology (Santa Cruz, Calif.) was used at 1:500 dilutions. Rabbit anti-5-nitroso-cysteine antibody from Alpha diagnostics was used at 1:500 dilutions. Rabbit anti-nitro-tyrosine antibody from Cell Signaling Technology, was used at 1:250 dilution. Rabbit anti-ubiquitin antibody from Santa Cruz Biotechnology (Santa Cruz, Calif.) was used at 1:1000 dilutions. Rabbit anti-GR antibody from Santa Cruz Biotechnology (Santa Cruz, Calif.) was used at a dilution of 1:1000. Rabbit anti-MMP9 antibody from Sigma Aldrich was used at 1:500 dilutions. Rabbit anti-acetyl-lysine antibody from Abcam was used at 1:750 dilutions. Rabbit anti-lamin-B1 from Santa Cruz Biotechnology (Santa Cruz, Calif.) was used at 1:1000 dilutions as a loading control. The Image J program was used for densitometry analyses.
# as §4
# [6] = COPD alveolar macrophages, result in words
# [7] = cell lysates incubated with GSH
smiles,measurement,setting,value
"COC(=O)[C@@H](N)CCCNC(=N)N[N+](=O)[O-] [L-NAME, L-nitroarginine methyl ester]",HDAC2 enzymatic activity,HDAC2 [1]; [6],failed to increase HDAC2 enzymatic activity
same,tyrosine nitration of HDAC2 (nitrotyrosine-HDAC2),"HDAC2 [2]; immunopurified HDAC2 from alveolar macrophages, compared with vehicle",significantly decreased levels of nitrotyrosine-HDAC2
same,NO levels,NO,suppressed NO generation
same,DEX's repressive effect on basal and LPS-induced IL-8 expression (DEX responsiveness),IL-8; protein and mRNA,failed
"CCOC(=O)CNC(=O)[C@H](CS)NC(=O)CC[C@H](N)C(=O)O [GSH-e, GSH-ethyl ester]",HDAC2 enzymatic activity,HDAC2 [1]; treatment after GSNO exposure of alveolar macrophages,significantly elevated HDAC2 enzymatic activity
same,intracellular glutathione levels,glutathione,increased intracellular glutathione levels
same,bacterial clearance,Pseudomonas aeruginosa,failed to improve bacterial clearance
same,levels of SNO-HDAC2,HDAC2 [2],significant reduction in the levels of SNO-HDAC2
same,repressive effect of DEX on basal and LPS-induced IL-8 secretion,"IL-8; GSNO exposed COPD alveolar macrophages, GSH-e 1 mM",significantly increased the repressive effect of DEX
"N[C@@H](CCC(=O)N[C@@H](CS)C(=O)NCC(=O)O)C(=O)O [GSH, glutathione]",S-nitrosylation and enzymatic activity of GSNO-exposed IP-HDAC2,HDAC2 [3]; after incubation with GSH,reversed by GSH treatment
same,HDAC2 activity,HDAC2 [3]; [7],concurrent increase in HDAC2 activity
same,nitrosylation (DAN assay),HDAC2 [3]; [7],denitrosylation by GSH
same,rHDAC2 enzymatic activity after GSNO treatment,[4]; in the presence of GSH,restored by GSH
"CC(=O)N[C@@H](CS)C(=O)O [NAC, N-acetyl cysteine]",intracellular glutathione levels,glutathione,increased intracellular glutathione levels
same,bacterial clearance,Pseudomonas aeruginosa,failed to improve bacterial clearance
same,levels of SNO-HDAC2,HDAC2 [2],failed to ameliorate SNO-HDAC2 levels
CC(C)C[C@@H](C=O)NC(=O)[C@H](CC(C)C)NC(=O)[C@H](CC(C)C)NC(=O)OCc1ccccc1 [MG132] (Cbz-Leu-Leu-Leu-aldehyde),HDAC2 enzymatic activity,HDAC2 [1]; [6],no increase in HDAC2 enzymatic activity
same,HDAC2 binding in the IL-8 promoter,IL-8 promoter; COPD alveolar macrophages,no increase
same,HDAC2 protein levels,HDAC2 [5],increase in total HDAC2 protein
"CC(/C=C/C(=O)NO)=C\[C@@H](C)C(=O)c1ccc(N(C)C)cc1 [TSA, trichostatin]",basal and LPS-induced histone acetylation in the IL-8 promoter region,"IL-8 promoter; cotreatment with sulforaphane, with and without DEX",ablated sulforaphane repressed basal and LPS-induced histone acetylation
"N[C@@H](CCC(=O)N[C@@H](CSN=O)C(=O)NCC(=O)O)C(=O)O [GSNO, S-nitrosoglutathione]",HDAC2 enzymatic activity,HDAC2 [1]; [6],decreased HDAC2 enzymatic activity
same,S-nitrosylation of IP-HDAC2,HDAC2 [3]; GSNO exposure,elevated S-nitrosylation
same,enzymatic activity of IP-HDAC2,HDAC2 [3]; GSNO exposure,decreased enzymatic activity
same,rHDAC2 enzymatic activity,[4]; with GSNO,significantly inhibited rHDAC2 enzymatic activity
same,DEX resistance,IL-8; GSNO exposure,did not further increase DEX resistance
same,LPS-induced IL-8 secretion,"IL-8; GSNO treatment (10 μM, 4 h)",moderately augmented LPS-induced IL-8 secretion
